Patent US12077503B2, “Substituted cyclic amides and their use as herbicides” (FMC CORPORATION, priority 2015, dated 2024)

Experiments:
Assay type in all cases: in vivo
Kochia (Kochia scoparia) [1] = assay: Test A preemergence
Summary of the method: (§1)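 Visual injury scores from 0, no effect, to 100, complete control, were assigned versus untreated controls roughly 10 d after treatment in the greenhouse. Test chemicals, formulated with surfactant in a non-phytotoxic solvent, were applied to planted seeds as a preemergence soil spray or postemergence to one- to two-leaf plants 2 to 10 cm tall, in loam–sand soil.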

[2] = system: barnyardgrass (Echinochloa crus-galli); assay: Test A preemergence
Summary of the method: as §1

[3] = system: giant foxtail (Setaria faberii); assay: Test A preemergence
Summary of the method: as §1

[4] = system: pigweed (Amaranthus retroflexus); assay: Test A preemergence
[5] = system: ragweed (common ragweed, Ambrosia elatior); assay: Test A preemergence
Summary of the method: as §1

[6] = system: ryegrass, Italian (Italian ryegrass, Lolium multiflorum); assay: Test A preemergence
Summary of the method: as §1

[7] = system: Galium (catchweed bedstraw, Galium aparine); assay: Test A postemergence; conditions: for Plant response rating, Galium: postemergence, 0 to 100 scale (0 no effect, 100 complete control)
Summary of the method: as §1

Kochia (Kochia scoparia) [8] = assay: Test A postemergence; conditions: for Plant response rating, Kochia: postemergence, 0 to 100 scale (0 no effect, 100 complete control)
Summary of the method: as §1

[9] = system: barnyardgrass (Echinochloa crus-galli); assay: Test A postemergence; conditions: for Plant response rating, Barnyardgrass: postemergence, 0 to 100 scale (0 no effect, 100 complete control)
Summary of the method: as §1

[10] = system: blackgrass (Alopecurus myosuroides); assay: Test A postemergence; conditions: for Plant response rating, Blackgrass: postemergence, 0 to 100 scale (0 no effect, 100 complete control)
Summary of the method: as §1

corn (Zea mays) = assay: Test A postemergence; conditions: for Plant response rating, Corn: postemergence, 0 to 100 scale (0 no effect, 100 complete control)
Summary of the method: as §1

[11] = system: giant foxtail (Setaria faberii); assay: Test A postemergence; conditions: for Plant response rating, Foxtail, Giant: postemergence, 0 to 100 scale (0 no effect, 100 complete control)
Summary of the method: as §1

[12] = system: pigweed (Amaranthus retroflexus); assay: Test A postemergence; conditions: for Plant response rating, Pigweed: postemergence, 0 to 100 scale (0 no effect, 100 complete control)
Summary of the method: as §1

[13] = system: ragweed (common ragweed, Ambrosia elatior); assay: Test A postemergence; conditions: for Plant response rating, Ragweed: postemergence, 0 to 100 scale (0 no effect, 100 complete control)
Summary of the method: as §1

[14] = system: ryegrass, Italian (Italian ryegrass, Lolium multiflorum); assay: Test A postemergence; conditions: for Plant response rating, Ryegrass, Italian: postemergence, 0 to 100 scale (0 no effect, 100 complete control)
Summary of the method: as §1

[15] = system: wheat (Triticum aestivum); assay: Test A postemergence; conditions: for Plant response rating, Wheat: postemergence, 0 to 100 scale (0 no effect, 100 complete control)
Summary of the method: as §1

[16] = system: barnyardgrass (Echinochloa crus-galli); assay: Test B flooded paddy test; conditions: Flood, 250 g ai/ha
Summary of the method: (§2)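 Percent control, visually estimated after 13–15 d in the greenhouse on a 0–100 basis, compares treated pots with untreated ones; compound was put into paddy water 3 cm above the soil when plants had two leaves.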

[17] = system: ducksalad (Heteranthera limosa); assay: Test B flooded paddy test; conditions: Flood, 250 g ai/ha
Summary of the method: as §2

rice (Oryra sativa) = assay: Test B flooded paddy test; conditions: Flood, 250 g ai/ha
Summary of the method: as §2

[18] = system: sedge, umbrella (small-flower umbrella sedge, Cyperus difformis); assay: Test B flooded paddy test; conditions: Flood, 250 g ai/ha
Summary of the method: as §2

[19] = 125 g ai/ha, Preemergence, visual injury after approximately 10 d, 0 to 100 scale where 0 is no effect and 100 is complete control
[20] = 500 g ai/ha, preemergence, 0 to 100 scale, 0 = no effect, 100 = complete control
[21] = 125 g ai/ha, visual rating after approx. 10 d
[22] = 500 g ai/ha, visual injury, approx. 10 d
[23] = 0 to 100 scale where 0 is no effect and 100 is complete control, 13 to 15 d

Structure (SMILES): CN1CC(c2ccc(F)c(F)c2)C(C(=O)Nc2ccccc2S(C)(=O)=O)C1=O (centres unmarked) [Compound 640]
- Plant response rating, Kochia (Kochia (Kochia scoparia) [1]; [19]): 50
- Plant response rating, Kochia (Kochia (Kochia scoparia) [1]; [20]): 60
- Plant response rating, Barnyardgrass [2, 19]: 90
- Plant response rating, Barnyardgrass [2, 20]: 90
- Plant response rating, Foxtail, Giant [3, 19]: 90
- Plant response rating, Foxtail, Giant [3, 20]: 90
- Plant response rating, Pigweed [4, 19]: 80
- Plant response rating, Pigweed [4, 20]: 90
- Plant response rating, Ragweed [5, 19]: 40
- Plant response rating, Ragweed [5, 20]: 60
- Plant response rating, Ryegrass, Italian [6, 19]: 20
- Plant response rating, Ryegrass, Italian [6, 20]: 50
- Plant response rating, Galium [7, 21]: 40
- Plant response rating, Galium [7, 22]: 50
- Plant response rating, Kochia (Kochia (Kochia scoparia) [8]; [21]): 0
- Plant response rating, Kochia (Kochia (Kochia scoparia) [8]; [22]): 40
- Plant response rating, Barnyardgrass [9, 21]: 90
- Plant response rating, Barnyardgrass [9, 22]: 90
- Plant response rating, Blackgrass [10, 21]: 0
- Plant response rating, Blackgrass [10, 22]: 50
- Plant response rating, Corn (corn (Zea mays); [21]): 0
- Plant response rating, Corn (corn (Zea mays); [22]): 0
- Plant response rating, Foxtail, Giant [11, 21]: 80
- Plant response rating, Foxtail, Giant [11, 22]: 90
- Plant response rating, Pigweed [12, 21]: 0
- Plant response rating, Pigweed [12, 22]: 20
- Plant response rating, Ragweed [13, 21]: 0
- Plant response rating, Ragweed [13, 22]: 0
- Plant response rating, Ryegrass, Italian [14, 21]: 0
- Plant response rating, Ryegrass, Italian [14, 22]: 0
- Plant response rating, Wheat [15, 21]: 0
- Plant response rating, Wheat [15, 22]: 50
- Plant response rating, Barnyardgrass [16, 23]: 30
- Plant response rating, Ducksalad [17, 23]: 100
- Plant response rating, Rice (rice (Oryra sativa); [23]): 25
- Plant response rating, Sedge, Umbrella [18, 23]: 0

Structure (SMILES): CC(C)Oc1ccc([C@H]2CN(C)C(=O)[C@@H]2C(=O)Nc2cccc(F)c2F)cc1 [Compound 953]
- pest or weed control at 125 g/ha (Kochia (Kochia scoparia) [1]; Bassia scoparia, pre-emergence, 240 h, 125 g ai/ha, Preemergence, visual injury rating after approximately 10 d, read-out: Kochia plant response rating (0 to 100 scale, 0 is no effect, 100 is complete control)): 60%
- pest or weed control at 500 g/ha (Kochia (Kochia scoparia) [1]; Bassia scoparia, pre-emergence, 240 h, 500 g ai/ha, preemergence, visual injury rating about 10 d after treatment, 0 to 100 scale (0 no effect, 100 complete control), read-out: Kochia plant response rating): 60%
- pest or weed control at 125 g/ha ([2]; Echinochloa crus-galli, pre-emergence, 240 h, 125 g ai/ha, Preemergence, visual injury rating after approximately 10 d, read-out: Barnyardgrass plant response rating (0 to 100 scale, 0 is no effect, 100 is complete control)): 90%
- pest or weed control at 500 g/ha ([2]; Echinochloa crus-galli, pre-emergence, 240 h, 500 g ai/ha, preemergence, visual injury rating about 10 d after treatment, 0 to 100 scale (0 no effect, 100 complete control), read-out: Barnyardgrass plant response rating): 90%
- pest or weed control at 125 g/ha ([3]; Setaria faberi, pre-emergence, 240 h, 125 g ai/ha, Preemergence, visual injury rating after approximately 10 d, read-out: Foxtail, Giant plant response rating (0 to 100 scale, 0 is no effect, 100 is complete control)): 90%
- pest or weed control at 500 g/ha ([3]; Setaria faberi, pre-emergence, 240 h, 500 g ai/ha, preemergence, visual injury rating about 10 d after treatment, 0 to 100 scale (0 no effect, 100 complete control), read-out: Foxtail, Giant plant response rating): 100%
- pest or weed control at 125 g/ha ([4]; Amaranthus retroflexus, pre-emergence, 240 h, 125 g ai/ha, Preemergence, visual injury rating after approximately 10 d, read-out: Pigweed plant response rating (0 to 100 scale, 0 is no effect, 100 is complete control)): 0%
- pest or weed control at 500 g/ha ([4]; Amaranthus retroflexus, pre-emergence, 240 h, 500 g ai/ha, preemergence, visual injury rating about 10 d after treatment, 0 to 100 scale (0 no effect, 100 complete control), read-out: Pigweed plant response rating): 0%
- pest or weed control at 125 g/ha ([5]; Ambrosia artemisiifolia, pre-emergence, 240 h, 125 g ai/ha, Preemergence, visual injury rating after approximately 10 d, read-out: Ragweed plant response rating (0 to 100 scale, 0 is no effect, 100 is complete control)): 0%
- pest or weed control at 500 g/ha ([5]; Ambrosia artemisiifolia, pre-emergence, 240 h, 500 g ai/ha, preemergence, visual injury rating about 10 d after treatment, 0 to 100 scale (0 no effect, 100 complete control), read-out: Ragweed plant response rating): 0%
- pest or weed control at 125 g/ha ([6]; Lolium multiflorum, pre-emergence, 240 h, 125 g ai/ha, Preemergence, visual injury rating after approximately 10 d, read-out: Ryegrass, Italian plant response rating (0 to 100 scale, 0 is no effect, 100 is complete control)): 0%
- pest or weed control at 500 g/ha ([6]; Lolium multiflorum, pre-emergence, 240 h, 500 g ai/ha, preemergence, visual injury rating about 10 d after treatment, 0 to 100 scale (0 no effect, 100 complete control), read-out: Ryegrass, Italian plant response rating): 60%
- pest or weed control at 125 g/ha ([7]; Galium, post-emergence, 240 h, 125 g ai/ha, Postemergence, visual injury after approximately 10 d, 0 to 100 scale where 0 is no effect and 100 is complete control, read-out: Plant response rating, Galium): 20%
- pest or weed control at 125 g/ha (Kochia (Kochia scoparia) [8]; Bassia scoparia, post-emergence, 240 h, 125 g ai/ha, Postemergence, visual injury after approximately 10 d, 0 to 100 scale where 0 is no effect and 100 is complete control, read-out: Plant response rating, Kochia): 30%
- pest or weed control at 125 g/ha ([9]; Echinochloa crus-galli, post-emergence, 240 h, 125 g ai/ha, Postemergence, visual injury after approximately 10 d, 0 to 100 scale where 0 is no effect and 100 is complete control, read-out: Plant response rating, Barnyardgrass): 90%
- pest or weed control at 125 g/ha ([10]; Alopecurus myosuroides, post-emergence, 240 h, 125 g ai/ha, Postemergence, visual injury after approximately 10 d, 0 to 100 scale where 0 is no effect and 100 is complete control, read-out: Plant response rating, Blackgrass): 0%
- Corn plant response rating (crop injury, 0 = no effect, 100 = complete kill) at 125 g/ha (corn (Zea mays); Zea mays, post-emergence, 240 h, 125 g ai/ha, Postemergence, visual injury after approximately 10 d, 0 to 100 scale where 0 is no effect and 100 is complete control): 0%
- pest or weed control at 125 g/ha ([11]; Setaria faberi, post-emergence, 240 h, 125 g ai/ha, Postemergence, visual injury after approximately 10 d, 0 to 100 scale where 0 is no effect and 100 is complete control, read-out: Plant response rating, Foxtail, Giant): 90%
- pest or weed control at 125 g/ha ([12]; Amaranthus retroflexus, post-emergence, 240 h, 125 g ai/ha, Postemergence, visual injury after approximately 10 d, 0 to 100 scale where 0 is no effect and 100 is complete control, read-out: Plant response rating, Pigweed): 0%
- pest or weed control at 125 g/ha ([13]; Ambrosia artemisiifolia, post-emergence, 240 h, 125 g ai/ha, Postemergence, visual injury after approximately 10 d, 0 to 100 scale where 0 is no effect and 100 is complete control, read-out: Plant response rating, Ragweed): 0%
- pest or weed control at 125 g/ha ([14]; Lolium multiflorum, post-emergence, 240 h, 125 g ai/ha, Postemergence, visual injury after approximately 10 d, 0 to 100 scale where 0 is no effect and 100 is complete control, read-out: Plant response rating, Ryegrass, Italian): 0%
- plant injury at 125 g/ha ([15]; Triticum aestivum, post-emergence, 240 h, 125 g ai/ha, Postemergence, visual injury after approximately 10 d, 0 to 100 scale where 0 is no effect and 100 is complete control, read-out: Plant response rating, Wheat): 0%
- pest or weed control at 250 g/ha ([16]; Echinochloa crus-galli, scale of 0 to 100 where 0 is no effect and 100 is complete control, read-out: Barnyardgrass plant response rating): 20%
- pest or weed control at 250 g/ha ([17]; Heteranthera limosa, scale of 0 to 100 where 0 is no effect and 100 is complete control, read-out: Ducksalad plant response rating): 40%
- pest or weed control at 250 g/ha (rice (Oryra sativa); Oryza sativa, scale of 0 to 100 where 0 is no effect and 100 is complete control, read-out: Rice plant response rating): 0%
- pest or weed control at 250 g/ha ([18]; Cyperus difformis, scale of 0 to 100 where 0 is no effect and 100 is complete control, read-out: Sedge, Umbrella plant response rating): 0%
